pKi: −log10 of the molar value. Each block holds one molecule with its values, some of them ahead of it.
Legend:
Carbonic anhydrase 9 [1] = target: T1, Carbonic anhydrase 9 (Homo sapiens, UniProt Q16790); assay: Inhibition of human recombinant carbonic anhydrase 9 by stopped flow CO2 hydration assay
NCI-H460 = assay: Growth inhibition of human NCI-H460 cells at 10 uM incubated for 48 hrs by sulforhodamine B assay relative to control; type: functional; conditions: NCI-H460, 48 h, read-out: GI
BT-549 = assay: Growth inhibition of human BT549 cells at 10 uM incubated for 48 hrs by sulforhodamine B assay relative to control; type: functional; conditions: BT-549, 48 h, read-out: GI
CAKI-1 = assay: Growth inhibition of human Caki1 cells at 10 uM incubated for 48 hrs by sulforhodamine B assay relative to control; type: functional; conditions: CAKI-1, 48 h, read-out: GI
A549 = assay: Growth inhibition of human A549/ATCC cells at 10 uM incubated for 48 hrs by sulforhodamine B assay relative to control; type: functional; conditions: A549, 48 h, read-out: GI
SK-MEL-2 = assay: Growth inhibition of human SK-MEL-2 cells at 10 uM incubated for 48 hrs by sulforhodamine B assay relative to control; type: functional; conditions: SK-MEL-2, 48 h, read-out: GI
NCI-H226 = assay: Growth inhibition of human NCI-H226 cells at 10 uM incubated for 48 hrs by sulforhodamine B assay relative to control; type: functional; conditions: NCI-H226, 48 h, read-out: GI
NCI-H522 = assay: Growth inhibition of human NCI-H522 cells at 10 uM incubated for 48 hrs by sulforhodamine B assay relative to control; type: functional; conditions: NCI-H522, 48 h, read-out: GI
HCT-15 = assay: Growth inhibition of human HCT15 cells at 10 uM incubated for 48 hrs by sulforhodamine B assay relative to control; type: functional; conditions: HCT-15, 48 h, read-out: GI
HCT-116 = assay: Growth inhibition of human HCT116 cells at 10 uM incubated for 48 hrs by sulforhodamine B assay relative to control; type: functional; conditions: HCT-116, 48 h, read-out: GI
OVCAR-8 = assay: Growth inhibition of human OVCAR8 cells at 10 uM incubated for 48 hrs by sulforhodamine B assay relative to control; type: functional; conditions: OVCAR-8, 48 h, read-out: GI
CCRF-CEM = assay: Growth inhibition of human CCRF-CEM cells at 10 uM incubated for 48 hrs by sulforhodamine B assay relative to control; type: functional; conditions: read-out: GI
SW-620 = assay: Growth inhibition of human SW620 cells at 10 uM incubated for 48 hrs by sulforhodamine B assay relative to control; type: functional; conditions: SW-620, 48 h, read-out: GI
UACC-257 = assay: Growth inhibition of human UACC257 cells at 10 uM incubated for 48 hrs by sulforhodamine B assay relative to control; type: functional; conditions: UACC-257, 48 h, read-out: GI
ACHN = assay: Growth inhibition of human ACHN cells at 10 uM incubated for 48 hrs by sulforhodamine B assay relative to control; type: functional; conditions: read-out: GI
T47D = assay: Growth inhibition of human T47D cells at 10 uM incubated for 48 hrs by sulforhodamine B assay relative to control; type: functional; conditions: read-out: GI
TK-10 = assay: Growth inhibition of human TK10 cells at 10 uM incubated for 48 hrs by sulforhodamine B assay relative to control; type: functional; conditions: TK-10, 48 h, read-out: GI
MCF7 = assay: Growth inhibition of human MCF7 cells at 10 uM incubated for 48 hrs by sulforhodamine B assay relative to control; type: functional; conditions: MCF7, 48 h, read-out: GI
UO-31 = assay: Growth inhibition of human UO31 cells at 10 uM incubated for 48 hrs by sulforhodamine B assay relative to control; type: functional; conditions: UO-31, 48 h, read-out: GI
DU-145 = assay: Growth inhibition of human DU145 cells at 10 uM incubated for 48 hrs by sulforhodamine B assay relative to control; type: functional; conditions: DU-145, 48 h, read-out: GI
SK-MEL-5 = assay: Growth inhibition of human SK-MEL-5 cells at 10 uM incubated for 48 hrs by sulforhodamine B assay relative to control; type: functional; conditions: SK-MEL-5, 48 h, read-out: GI
MDA-MB-231 = assay: Growth inhibition of human MDA-MB-231 cells at 10 uM incubated for 48 hrs by sulforhodamine B assay relative to control; type: functional; conditions: MDA-MB-231, 48 h, read-out: GI
Carbonic anhydrase 9 [2] = target: T1, Carbonic anhydrase 9; assay: Inhibition of recombinant human carbonic anhydrase 9 preincubated for 15 mins by phenol red dye based stopped flow CO2 hydration assay
RPMI-8226 = assay: Growth inhibition of human RPMI8226 cells at 10 uM incubated for 48 hrs by sulforhodamine B assay relative to control; type: functional; conditions: RPMI-8226, 48 h, read-out: GI
UACC-62 = assay: Growth inhibition of human UACC62 cells at 10 uM incubated for 48 hrs by sulforhodamine B assay relative to control; type: functional; conditions: UACC-62, 48 h, read-out: GI
786-0 = assay: Growth inhibition of human 786-0 cells at 10 uM incubated for 48 hrs by sulforhodamine B assay relative to control; type: functional; conditions: 786-0, 48 h, read-out: GI
SN12C = assay: Growth inhibition of human SN12C cells at 10 uM incubated for 48 hrs by sulforhodamine B assay relative to control; type: functional; conditions: read-out: GI
A498 = assay: Growth inhibition of human A498 cells at 10 uM incubated for 48 hrs by sulforhodamine B assay relative to control; type: functional; conditions: A498, 48 h, read-out: GI
KM12 = assay: Growth inhibition of human KM12 cells at 10 uM incubated for 48 hrs by sulforhodamine B assay relative to control; type: functional; conditions: KM12, 48 h, read-out: GI
EKVX = assay: Growth inhibition of human EKVX cells at 10 uM incubated for 48 hrs by sulforhodamine B assay relative to control; type: functional; conditions: read-out: GI
NCI/ADR-RES = assay: Growth inhibition of human NCI/ADR-RES cells at 10 uM incubated for 48 hrs by sulforhodamine B assay relative to control; type: functional; conditions: read-out: GI
HOP-92 = assay: Growth inhibition of human HOP92 cells at 10 uM incubated for 48 hrs by sulforhodamine B assay relative to control; type: functional; conditions: HOP-92, 48 h, read-out: GI
U-251 = assay: Growth inhibition of human U251 cells at 10 uM incubated for 48 hrs by sulforhodamine B assay relative to control; type: functional; conditions: U-251, 48 h, read-out: GI
MDA-MB-468 = assay: Growth inhibition of human MDA-MB-468 cells at 10 uM incubated for 48 hrs by sulforhodamine B assay relative to control; type: functional; conditions: MDA-MB-468, 48 h, read-out: GI
OVCAR-4 = assay: Growth inhibition of human OVCAR4 cells at 10 uM incubated for 48 hrs by sulforhodamine B assay relative to control; type: functional; conditions: OVCAR-4, 48 h, read-out: GI
RXF 393 = assay: Growth inhibition of human RXF393 cells at 10 uM incubated for 48 hrs by sulforhodamine B assay relative to control; type: functional; conditions: RXF 393, 48 h, read-out: GI
HT-29 = assay: Growth inhibition of human HT-29 cells at 10 uM incubated for 48 hrs by sulforhodamine B assay relative to control; type: functional; conditions: HT-29, 48 h, read-out: GI
PC-3 = assay: Growth inhibition of human PC3 cells at 10 uM incubated for 48 hrs by sulforhodamine B assay relative to control; type: functional; conditions: PC-3, 48 h, read-out: GI
SNB-19 = assay: Growth inhibition of human SNB19 cells at 10 uM incubated for 48 hrs by sulforhodamine B assay relative to control; type: functional; conditions: SNB-19, 48 h, read-out: GI

pKi (Carbonic anhydrase 9 [1]): 6.54
SMILES: NS(=O)(=O)c1ccc(CC/N=C2\NC(=O)/C(=C3/C(=O)Nc4ccc(F)cc43)S2)cc1

pKi (Carbonic anhydrase 9 [2]): 7.56
SMILES: NS(=O)(=O)c1ccc(N/N=C2\C(=O)N(Cc3ccccc3)c3ccccc32)cc1
inhibition of growth at 10 µM (NCI-H460): 20% | inhibition of growth at 10 µM (BT-549): 16% | inhibition of growth at 10 µM (CAKI-1): 20% | inhibition of growth at 10 µM (A549): 25% | inhibition of growth at 10 µM (SK-MEL-2): 13% | inhibition of growth at 10 µM (NCI-H226): 21% | inhibition of growth at 10 µM (NCI-H522): 46% | inhibition of growth at 10 µM (HCT-15): 13% | inhibition of growth at 10 µM (HCT-116): 28% | inhibition of growth at 10 µM (OVCAR-8): 17% | inhibition of growth at 10 µM (CCRF-CEM): 36% | inhibition of growth at 10 µM (SW-620): 18% | inhibition of growth at 10 µM (UACC-257): 11% | inhibition of growth at 10 µM (ACHN): 14% | inhibition of growth at 10 µM (T47D): 42% | inhibition of growth at 10 µM (TK-10): 19% | inhibition of growth at 10 µM (MCF7): 21% | inhibition of growth at 10 µM (UO-31): 38% | inhibition of growth at 10 µM (DU-145): 10% | inhibition of growth at 10 µM (SK-MEL-5): 12% | inhibition of growth at 10 µM (MDA-MB-231): 19% | inhibition of growth at 10 µM (RPMI-8226): 38% | inhibition of growth at 10 µM (UACC-62): 37% | inhibition of growth at 10 µM (786-0): 22% | inhibition of growth at 10 µM (SN12C): 19% | inhibition of growth at 10 µM (A498): 10% | inhibition of growth at 10 µM (KM12): 10% | inhibition of growth at 10 µM (EKVX): 13% | inhibition of growth at 10 µM (NCI/ADR-RES): 20% | inhibition of growth at 10 µM (HOP-92): 34% | inhibition of growth at 10 µM (U-251): 17% | inhibition of growth at 10 µM (MDA-MB-468): 27% | inhibition of growth at 10 µM (OVCAR-4): 21% | inhibition of growth at 10 µM (RXF 393): 10% | inhibition of growth at 10 µM (HT-29): 21% | inhibition of growth at 10 µM (PC-3): 25% | inhibition of growth at 10 µM (SNB-19): 13%

— ChEMBL document CHEMBL4311999, “3-Hydrazinoisatin-based benzenesulfonamides as novel carbonic anhydrase inhibitors endowed with anticancer activity: Synthesis, in vitro biological evaluation and in silico insights” (Eur J Med Chem, 2019)
